Experiments:
[1] = molecular target: T1, mMD2 (Mus musculus, UniProt Q9JHF9); test: Solid phase binding assay, mMD2 to immobilized mTREML1 stalk; settings: stalk coated 5 ug/ml; FIG. 3B
T1 sequence (Q9JHF9 19-160): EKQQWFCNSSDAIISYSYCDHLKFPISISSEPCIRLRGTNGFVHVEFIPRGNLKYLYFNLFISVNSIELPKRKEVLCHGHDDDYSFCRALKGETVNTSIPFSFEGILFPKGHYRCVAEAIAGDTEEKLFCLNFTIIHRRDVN
Method: For TREML1 or mTREML1 stalk binding to human or mouse MD2 protein, TREML1 stalk or mTREML1 stalk (5 ug/ml in PBS) was coated separately on a 96-well plate. Recombinant hTLR4, hMD2, hCD14, or mMD2 was each serially diluted and added to the plates. Anti-His tag antibody-HRP was used as a detection antibody to detect the protein binding.

[2] = system: BMDCs; test: Mouse bone marrow derived dendritic cell maturation (flow cytometry); format: cell-based; settings: FIG. 8
Method: Femurs and tibiae were harvested from female C57BL/6 mice and extra muscle tissues were removed. Bones were disinfected in 70% ethanol, then rinsed with RPMI-1640 medium, and both ends were cut to flush out the bone marrow with RPMI-1640 medium using 26 G needle syringes. To disperse cell clumps, bone marrow suspension was pipetted in-and-out several times and washed twice with RPMI-1640 medium by centrifugation. […] At day 0, after cell counting, the leukocytes were seeded at a concentration of 2×10^6 cells/10 ml R10 medium containing 200 U/ml rmGM-CSF in sterile […] Petri dish and incubated at 37° C. with 5% CO2. At day 3, another 10 ml of R10 medium containing 200 U/ml rmGM-CSF was added. At days 6, one half of the supernatant was taken out and centrifuged to collect cell pellet, which was resuspend in original plate with 10 ml of R10 medium containing 200 U/ml GM-CSF. At day 8, non-adherent cells were collected by gentle pipetting and centrifuged at 300 g for 5 min. To obtain purer dendritic cells, the population of macrophages (F4/80^high) was removed with Anti-F4/80 MicroBeads UltraPure (130-110-443, Miltenyi Biotec, Bergisch Gladbach, Germany) following the manufacturer's instructions. Briefly, cell pellet was resuspended and mixed well in MACS buffer with Anti-F4/80 MicroBeads UltraPure. This mixture was incubated for 15 min in the dark in 4° C. After washing cells with MACS buffer, cells were resuspended in MACS buffer, filtered with 30 μm nylon mesh, and added to the MACS buffer rinsed column to separate F4/80^+ cells. Unlabeled cells were collected and washed with R10 medium. To freeze the cells, cell pellet was counted and resuspended at a concentration 1×10^7 cell in 2 ml CELLBANKER2 (#11891, ZENOAQ) per cryopreservation vial and stored at −80 degree Celsius.
BMDCs were thawed for the DC maturation experiments. These cells were seeded at 1×10^6 cells/2 ml in R10 medium containing 200 U/ml rmGM-CSF in wells of a 6-well tissue culture dish and cultured to recover the cell viability at 37° C. with 5% CO2. After 6 hr, BMDCs were treated with various fragments of mTREML1 protein and cultured in 37° C. with 5% CO2. On the next day, resuspended cells were collected and analyzed by flow cytometry.
Cells were centrifuged at 1800 rpm for 3 min in PBS containing 1% FBS and 0.1% sodium azide (PBSBA), and then divided at a concentration of 1×10^5 cells/100 ul PBSBA in flow tube. Before staining the surface marker of DC, cells were treated with mouse Fc blocker to avoid antibody non-specific binding at room temperature for 30 min. […] After PBSBA washing, samples were analyzed using the CytoFlex flow cytometer with the CytExpert software.

[3] = system: CT26 colon cancer cells; test: CT26 colon carcinoma model, tumor vaccine with adjuvant; format: in vivo, BALB/c mice; settings: combined with tumor antigen 5E-GP70-15/aluminum mixture, s.c. on days 6 and 13; FIG. 9B
Method: To test TREML1 ECD or its stalk as a vaccine adjuvant or immune booster, we use a CT26 colon carcinoma animal model. […] Briefly, CT26 colon cancer cells (3×10^5 cells) were injected subcutaneously into BALB/c mice on day 0. When the tumor grows to 30-100 mm^3 on day 6, tumor vaccines (tumor antigen 5E-GP70-15/aluminum mixture with or without mouse TREML1 stalk; 100 μL/mouse each time) were injected subcutaneously. The vaccinations were repeated on days 13. Tumor volumes were measured every 3-4 days. […] A DNA vaccine containing the gp70 gene has been used to induce protective immunity against CT26 cells. (J. Takeda et al., “Anti-tumor immunity against CT26 colon tumor in mice immunized with plasmid DNA encoding beta-galactosidase fused to an envelope protein of endogenous retrovirus,” Cell Immunol., (2000), 204(1): 11-18).
For the establishment of syngeneic murine colon cancer models, BALB/c mice were subcutaneously injected in the back with 3×10^5 CT26 cells per mouse. When the volume of the inoculated tumor reached 30-100 mm^3, mice were randomly divided into cohorts for different treatments. […] During each animal study, tumor dimensions were monitored with caliper measurements, and the tumor volumes were calculated using the equation: […], wherein length is the longest diameter of the tumor and the width is the shortest diameter. […]

## mTREML1 stalk: mouse TREML1 stalk polypeptide, SEQ ID NO:4, EGEEAEDEKETYRIGTGSLLEDPSLDPSASAGPHEFRRRENSIP, chemically synthesized (listed as Mus musculus)
[1]
  mouse MD2 binding to immobilized mTREML1 stalk: can bind to the immobilized TREML1 stalk and mTREML1 stalk
[2]
  dendritic cell maturation effect compared with TNF-α: significantly stronger than those of TNF-α
[2]; analyzed the next day
  dendritic cell maturation (DC maturation markers CD40, CD86, CD80, MHC II): can trigger dendritic cell maturation
[3]
  tumor volume, vaccine with mTREML1 stalk as adjuvant: dramatic reduction in the tumor volumes
